Results from ChEMBL document CHEMBL4229439, “Design, synthesis and antimycobacterial activity of 3,5-dinitrobenzamide derivatives containing fused ring moieties” (2018).
≈ marks a conversion by molar mass, not a printed value. Calls of active or inactive are those of the source. The calls are words filed in the database; no cut-off is given here.

Assays:
[1] = system: Mycobacterium tuberculosis; test: Antimycobacterial activity against isoniazid/rifampicin-resistant Mycobacterium tuberculosis isolate 16833 after 7 days by Alamar blue assay; assay type: functional; conditions: isolate 16833, 168 h
[2] = system: Mycobacterium tuberculosis; test: Antimycobacterial activity against isoniazid/rifampicin-resistant Mycobacterium tuberculosis isolate 16995 after 7 days by Alamar blue assay; assay type: functional; conditions: isolate 16995, 168 h
[3] = system: Mycobacterium tuberculosis; test: Antimycobacterial activity against isoniazid/rifampicin-resistant Mycobacterium tuberculosis isolate 16833 up to 10 ug/ml after 7 days by Alamar blue assay; assay type: functional, organism-based
[4] = system: Mycobacterium tuberculosis; test: Antimycobacterial activity against isoniazid/rifampicin-resistant Mycobacterium tuberculosis isolate 16995 up to 10 ug/ml after 7 days by Alamar blue assay; assay type: functional, organism-based

Row | Compound | MIC [1] [µg/mL] | MIC [2] [µg/mL] | Activity [3] | Activity [4]
1 | O=C(NCc1ccc2c(c1)CCN(Cc1ccc(Cl)cc1)C2)c1cc([N+](=O)[O-])cc([N+](=O)[O-])c1 | 0.143 (≈ 0.297 µM) | 0.077 (≈ 0.16 µM) | – | –
2 | O=C(NCc1ccc2c(c1)CCN(c1ccc(C(F)(F)F)cc1)C2)c1cc([N+](=O)[O-])cc([N+](=O)[O-])c1 | 0.152 (≈ 0.304 µM) | 0.302 (≈ 0.603 µM) | – | –
3 | O=C(NCc1ccc2c(c1)CNC2)c1cc([N+](=O)[O-])cc([N+](=O)[O-])c1 | > 10 | > 10 | inactive | inactive
4 | COc1ccc(CN2Cc3ccc(CNC(=O)c4cc([N+](=O)[O-])cc([N+](=O)[O-])c4)cc3C2)cc1 | 0.286 (≈ 0.618 µM) | 0.606 (≈ 1.31 µM) | – | –
5 | NNC(=O)c1ccncc1 [ISONIAZID] | > 40 | > 40 | – | –
6 | O=C(NCc1ccc2c(c1)CN(Cc1ccc(C(F)(F)F)cc1)C2)c1cc([N+](=O)[O-])cc([N+](=O)[O-])c1 | 0.278 (≈ 0.556 µM) | 0.308 (≈ 0.615 µM) | – | –
7 | O=C(NCc1ccc2c(c1)CCN(Cc1cccc(F)c1)C2)c1cc([N+](=O)[O-])cc([N+](=O)[O-])c1 | 0.074 (≈ 0.159 µM) | 0.076 (≈ 0.164 µM) | – | –
8 | O=C(NCc1ccc2c(c1)CN(Cc1ccc(OC(F)(F)F)cc1)C2)c1cc([N+](=O)[O-])cc([N+](=O)[O-])c1 | 0.565 (≈ 1.09 µM) | 0.61 (≈ 1.18 µM) | – | –
9 | O=C(NCc1ccc2c(c1)CCN(c1ccc(F)cc1)C2)c1cc([N+](=O)[O-])cc([N+](=O)[O-])c1 | 0.074 (≈ 0.164 µM) | 0.078 (≈ 0.173 µM) | – | –
10 | O=C(NCc1ccc2c(c1)CN(Cc1ccc(F)cc1)C2)c1cc([N+](=O)[O-])cc([N+](=O)[O-])c1 | 0.073 (≈ 0.162 µM) | 0.115 (≈ 0.255 µM) | – | –
11 | O=C(NCc1ccc2c(c1)CN(c1ccc(F)cc1)C2)c1cc([N+](=O)[O-])cc([N+](=O)[O-])c1 | 0.066 (≈ 0.151 µM) | 0.147 (≈ 0.337 µM) | – | –
12 | O=c1nc(N2CCN(CC3CCCCC3)CC2)sc2c([N+](=O)[O-])cc(C(F)(F)F)cc12 [MACOZINONE] | < 0.016 | < 0.016 | – | –
13 | CO[C@H]1/C=C/O[C@@]2(C)Oc3c(C)c(O)c4c(O)c(c(/C=N/N5CCN(C)CC5)c(O)c4c3C2=O)NC(=O)/C(C)=C\C=C\[C@H](C)[C@H](O)[C@@H](C)[C@@H](O)[C@@H](C)[C@H](OC(C)=O)[C@@H]1C [RIFAMPIN] | > 40 | > 40 | – | –
